Assay results published in patent US20170354721A1, “WOUND HEALING COMPOUND” (priority 2016, published 2017).

Key:
[1] = system: all ranges of bacterial infection; conditions: in water or saline; cited from earlier work
[2] = system: ancef sensitive organisms; assay: Minimum bactericidal concentration (MBC) of ancef; format: cell-based
Procedure: In an operating room setting, the vancomycin is reconstituted at room temperature (˜25° C.). […] To insure the Minimal Inhibitory Concentration (MIC) for vancomycin is exceeded, the total amount of vancomycin added to the mixture ranges from 1 mg to 5000 mg with the preferred amount being 500 mg for a 10 ml syringe, 750 mg for a 15 ml syringe, and 1000 for a 20 ml syringe. People having skill in the art will recognize that the concentrations of vancomycin can be adjusted for different sized syringes. The reconstituted vancomycin is added to the thrombin-flowable agent mixture to form a wound healing compound (“compound”). The compound is applied directly to the target wound. The Minimum Inhibitory Concentration (MIC) is defined as the lowest concentration of antimicrobial that will inhibit the visible growth of a microorganism after an overnight incubation. Related to this is the minimum bactericidal concentration (MBC), which is the lowest concentration of antimicrobial agent that will prevent the growth of an organism after subculture on to antibiotic free media.
Depending on the infection agent, other antibiotics may be added to the mixture to form the wound healing compound. In the lab, ancef sensitive organisms are inhibited at an MIC ranging from 1-4 mcg/ml. However, ancef is bactericidal a four times the MIC. […]

[3] = system: ancef sensitive organisms; conditions: in the lab; cited from earlier work

SMILES	concentration at which most effective if all ranges of bacterial infection are to be inhibited [1] [µg/mL]	preferred concentration (the MBC), bactericidal at four times the MIC [2]	MIC [3] [µg/mL]
CN[C@H](CC(C)C)C(=O)N[C@H]1C(=O)N[C@@H](CC(N)=O)C(=O)N[C@H]2C(=O)N[C@H]3C(=O)N[C@H](C(=O)N[C@H](C(=O)O)c4cc(O)cc(O)c4-c4cc3ccc4O)[C@H](O)c3ccc(c(Cl)c3)Oc3cc2cc(c3O[C@@H]2O[C@H](CO)[C@@H](O)[C@H](O)[C@H]2O[C@H]2C[C@](C)(N)[C@H](O)[C@H](C)O2)Oc2ccc(cc2Cl)[C@H]1O [Vancomycin, vancomycin]	≥ 16	–	–
Cc1nnc(SCC2=C(C(=O)O)N3C(=O)[C@@H](NC(=O)Cn4cnnn4)[C@H]3SC2)s1 [ancef]	–	at least 16 mcg/ml	1 to 4
